Measured values published in patent publication US6518289B1 (Pfizer, Inc., priority 1997, dated 2003).
Structures can show the parent of a compound that is named as a salt.

How the values were obtained:
DBA2 audiogenic seizure = DBA2 audiogenic seizure model
[1] = tested on: carrageenan induced hyperalgesia; test: carrageenan induced hyperalgesia assay (Pain Model)
[2] = 30 mg/kg orally in the rat, at 1 hour
[3] = 30 mg/kg orally in the rat, at 2 hours

Compound	1 Hour (second column pair, group head not given) (DBA2 audiogenic seizure)	2 Hours (second column pair, group head not given) (DBA2 audiogenic seizure)	Pain Model % MPE 1 Hour [1]	Pain Model % MPE 2 Hours [1]	other results
Cl.NCC1(Cc2noc(=O)[nH]2)CCCCC1	20	40	80.6 % MPE	76.1 % MPE	duration of antihyperalgesic effect compared with gabapentin ([1]; 30 mg/kg orally in the rat): antihyperalgesic effect of longer duration than gabapentin; increase of paw withdrawal latency [1, 2]: 80.6%; increase of paw withdrawal latency [1, 3]: 76%; activity in the carrageenan induced hyperalgesia assay ([1]; result in words): active
CS(=O)(=O)NCCC1(CN)CCCCC1 (as salt: hydrochloride) [N-[2-1-Aminomethyl-cyclohexyl)-ethyl]-methanesulfonamide hydrochloride]	–	–	–	–	melting point: 196 to 199 °C
Cl.NCC1(Cc2noc(=S)[nH]2)CCCCC1 [3-(1-Aminomethyl-cyclohexylmethyl)-4H-[1,2,4]oxadiazole-5-thione; hydrochloride]	0	0	–	–	melting point: 210 to 212 °C
Cl.NCC1(Cc2nnn[nH]2)CCCCC1 [C-[1-(1H-Tetrazol-5-ylmethyl)-cyclohexyl)-methylamine hydrochloride]	60	100	–	–	protection (DBA2 audiogenic seizure; 10 mg/kg oral dosing, 1 hour postdose): 60%; protection (DBA2 audiogenic seizure; 10 mg/kg oral dosing, 2 hours postdose): 100%; protection (DBA2 audiogenic seizure; 10 mg/kg oral dosing, 4 hours postdose): 100%; protection (DBA2 audiogenic seizure; 10 mg/kg oral dosing, 6 hours postdose): 80%
NCC1(CC(=O)O)CCCCC1 [Gabapentin, 1-(aminomethyl)-cyclohexaneacetic acid, reference compound]	100	100	49.9 % MPE	19.9 % MPE	response in the DBA2 audiogenic seizure model (DBA2 audiogenic seizure; 10 mg/kg orally, result in words): no significant response; protection (DBA2 audiogenic seizure; 30 mg/kg, 2 hours postdose): 100%; increase of paw withdrawal latency [1, 2]: 49.9%; increase of paw withdrawal latency [1, 3]: 19.9%
CS(=O)(=O)NCCC1(CN)CCCCC1 [N-[2-1-Aminomethyl-cyclohexyl)-ethyl]-methanesulfonamide hydrochloride]	–	0	0.3 % MPE	−0.9 % MPE	–
CC(C)(C)C(=O)NCCC1(CN)CCCCC1 [N-[2-(1-Aminomethyl-cyclohexyl)-ethyl]-t-butylamide]	–	0	1.6 % MPE	−4.8 % MPE	–
